The values that follow come from PubChem BioAssay AID248 (DTP/NCI, 2004).

The subject of this experiment is L1210 leukemia ip in BDF1 mice, survival T/C. The experiment is described as follows: NCI In Vivo Anticancer Drug Screen. Data for tumor model L1210 Leukemia (intraperitoneal) in B6D2F1 (BDF1) mice. The following applies: endpoint: mean survival time, higher = longer survival. In outline:
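Read-out is survival time, reported as the treated-group measurement over the vehicle-control measurement.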

Where [1] appears, read: dose: 100.0 mg/kg/injection, schedule: Q01DX009 (ip), vehicle: saline.
The mark [2] stands for this setting: dose: 200.0 mg/kg/injection, schedule: Q01DX009 (ip), vehicle: saline.
Setting [3] is: dose: 400.0 mg/kg/injection, schedule: Q01DX009 (ip), vehicle: saline.
The mark [4] stands for this setting: dose: 100.0 mg/kg/injection, schedule: Q01DX001 (ip), vehicle: carboxymethylcellulose (CMC).
Where [5] appears, read: dose: 200.0 mg/kg/injection, schedule: Q01DX001 (ip), vehicle: carboxymethylcellulose (CMC).
The mark [6] stands for this setting: dose: 100.0 mg/kg/injection, schedule: Q01DX001 (ip), vehicle: saline.
[7] abbreviates: dose: 100.0 mg/kg/injection, schedule: Q04DX003 (ip), vehicle: saline.
Setting [8] is: dose: 200.0 mg/kg/injection, schedule: Q01DX001 (ip), vehicle: saline.
Setting [9] is: dose: 400.0 mg/kg/injection, schedule: Q01DX001 (ip), vehicle: saline.
Setting [10] is: dose: 100.0 mg/kg/injection, schedule: Q04DX002 (ip), vehicle: Klucel (hydroxypropylcellulose) (HPC).
[11] abbreviates: dose: 100.0 mg/kg/injection, schedule: Q01DX009 (ip), vehicle: saline with Tween-80.
Where [12] appears, read: dose: 100.0 mg/kg/injection, schedule: Q01DX009 (ip), vehicle: Klucel (hydroxypropylcellulose) (HPC).
[13] abbreviates: dose: 200.0 mg/kg/injection, schedule: Q01DX009 (ip), vehicle: Klucel (hydroxypropylcellulose) (HPC).

Values joined by “and” are separate entries in the source; they are usually repeats but may differ in a detail not shown here. Equal values may be shown once. Inconclusive results and toxic doses are left out.

`O=C1c2ccccc2CCC12OC2c1ccc(Cl)cc1` (centres undefined): the T/C is 102 % of control (dose: 50.0 mg/kg/injection, schedule: Q01DX009 (ip), vehicle: saline); 107 % of control under setting [1]; 108 % of control (dose: 100.0 mg/kg/injection, schedule: Q04DX003 (ip), vehicle: saline with Tween-80); 98 % of control under setting [2]; 95 % of control (dose: 200.0 mg/kg/injection, schedule: Q04DX003 (ip), vehicle: saline with Tween-80); 100 % of control under setting [3]. In addition, the T/C (dose: 400.0 mg/kg/injection, schedule: Q04DX003 (ip), vehicle: saline with Tween-80) was 103 % of control.
`S=C(N/N=C\c1ccc2c(c1)OCO2)Nc1ccc2cn[nH]c2c1`: the T/C was 97 % of control (dose: 50.0 mg/kg/injection, schedule: Q01DX001 (ip), vehicle: carboxymethylcellulose (CMC)); 100 % of control under setting [4]; 91 % of control under setting [5].
Turning to `NCCNCCNCCN`, the T/C runs as follows: (dose: 50.0 mg/kg/injection, schedule: Q01DX001 (ip), vehicle: saline) 95 % of control; under setting [6], 95 % of control; under setting [1], 93 % of control; under setting [7], 102 % of control; under setting [8], 98 % of control; under setting [2], 93 % of control. Also, the T/C by setting is: (dose: 200.0 mg/kg/injection, schedule: Q04DX003 (ip), vehicle: saline) 105 % of control; under setting [9], 101 % of control; under setting [3], 109 % of control; (dose: 400.0 mg/kg/injection, schedule: Q04DX003 (ip), vehicle: saline) 94 % of control.
With `CCCCCCCCC(O)CCC` (centres undefined), the T/C reads like this: under setting [1], 102 % of control; under setting [2], 105 % of control; under setting [3], 102 % of control.
`CCCCCCCC(=O)[O][Hg][c]1ccccc1`: the T/C was 98 % of control (dose: 9.38 mg/kg/injection, schedule: Q01DX001 (ip), vehicle: saline); 88 % of control (dose: 18.75 mg/kg/injection, schedule: Q01DX001 (ip), vehicle: saline); 102 % of control (dose: 37.5 mg/kg/injection, schedule: Q01DX001 (ip), vehicle: saline).
For the compound `Cc1ccc2c(ccc(C)[n+]2C)c1`, the T/C by setting is: (dose: 37.5 mg/kg/injection, schedule: Q01DX009 (ip), vehicle: acetone) 117 % of control; (dose: 37.5 mg/kg/injection, schedule: Q01DX009 (ip), vehicle: saline) 110 % of control and 112 % of control; (dose: 75.0 mg/kg/injection, schedule: Q01DX001 (ip), vehicle: saline) 100 % of control; (dose: 75.0 mg/kg/injection, schedule: Q01DX009 (ip), vehicle: saline) 118 % of control and 121 % of control; (dose: 150.0 mg/kg/injection, schedule: Q01DX001 (ip), vehicle: saline) 108 % of control; (dose: 150.0 mg/kg/injection, schedule: Q01DX009 (ip), vehicle: acetone) 102 % of control. Moreover, the T/C (dose: 300.0 mg/kg/injection, schedule: Q01DX001 (ip), vehicle: saline) was 105 % of control.
In the case of `O=C(O)C1OC(n2cc(I)c(=O)[nH]c2=O)CC1O` (centres undefined), the T/C was 107 % of control under setting [6], 103 % of control under setting [8] and 100 % of control under setting [9].
In the case of `O=[N+]([O-])c1ccccc1S/N=C/c1ccccc1O`, the T/C reads like this: under setting [10], 94 % of control; (dose: 200.0 mg/kg/injection, schedule: Q04DX002 (ip), vehicle: Klucel (hydroxypropylcellulose) (HPC)) 94 % of control; (dose: 400.0 mg/kg/injection, schedule: Q04DX002 (ip), vehicle: Klucel (hydroxypropylcellulose) (HPC)) 105 % of control.
Regarding `CCOC(=S)SCCC(=O)O`, the T/C under setting [11] is 95 % of control.
On to `NC(=O)N1C(=O)C=CC1=O`, for which the T/C (dose: 50.0 mg/kg/injection, schedule: Q04DX002 (ip), vehicle: Klucel (hydroxypropylcellulose) (HPC)) was 96 % of control; the T/C under setting [12] is 105 % of control; the T/C under setting [10] was 100 % of control; the T/C under setting [13] was 91 % of control.
With `CC(C)(NC(=O)N(CCCl)N=O)C(=O)O`, the T/C is, setting by setting: (dose: 15.0 mg/kg/injection, schedule: Q01DX001 (ip), vehicle: saline with Tween-80) 103 % of control; (dose: 23.0 mg/kg/injection, schedule: Q01DX001 (ip), vehicle: saline with Tween-80) 115 % of control; (dose: 36.0 mg/kg/injection, schedule: Q01DX001 (ip), vehicle: saline with Tween-80) 119 % of control; (dose: 119.0 mg/kg/injection, schedule: Q01DX001 (ip), vehicle: saline with Tween-80) 227 % of control; (dose: 178.0 mg/kg/injection, schedule: Q01DX001 (ip), vehicle: saline with Tween-80) 339 % of control; (dose: 266.0 mg/kg/injection, schedule: Q01DX001 (ip), vehicle: saline with Tween-80) 123 % of control. Besides, the T/C (dose: 400.0 mg/kg/injection, schedule: Q01DX001 (ip), vehicle: saline with Tween-80) was 352 % of control.
Turning to `CCCCCCCCCCCCCCCCS(=O)(=O)N/N=C/c1ccc(Cl)cc1Cl`, the T/C was 98 % of control under setting [4]; 101 % of control under setting [5]; 107 % of control (dose: 400.0 mg/kg/injection, schedule: Q01DX001 (ip), vehicle: carboxymethylcellulose (CMC)).
On to `CCC(C)[Se][Se]C(C)CC` (centres undefined), for which the T/C is 94 % of control (dose: 6.25 mg/kg/injection, schedule: Q01DX009 (ip), vehicle: saline); 97 % of control (dose: 6.25 mg/kg/injection, schedule: Q04DX003 (ip), vehicle: saline); 98 % of control (dose: 12.5 mg/kg/injection, schedule: Q01DX009 (ip), vehicle: saline); 103 % of control (dose: 12.5 mg/kg/injection, schedule: Q04DX003 (ip), vehicle: saline); 91 % of control (dose: 25.0 mg/kg/injection, schedule: Q01DX009 (ip), vehicle: saline); 103 % of control (dose: 25.0 mg/kg/injection, schedule: Q04DX003 (ip), vehicle: saline). In addition, under setting [7], the T/C is 89 % of control.
With `O=C(Nc1ccccc1)C(CCCCN1C(=O)c2ccccc2C1=O)N1C(=O)c2ccccc2C1=O` (centres undefined), the T/C under setting [12] was 95 % of control; the T/C under setting [13] was 106 % of control; the T/C (dose: 400.0 mg/kg/injection, schedule: Q01DX009 (ip), vehicle: Klucel (hydroxypropylcellulose) (HPC)) was 100 % of control.
As to `O=c1[nH]c(=O)c2ccccc2o1`, the T/C (dose: 2.5 mg/kg/injection, schedule: Q04DX003 (ip), vehicle: saline) is 100 % of control; the T/C (dose: 5.0 mg/kg/injection, schedule: Q04DX003 (ip), vehicle: saline) was 105 % of control; the T/C (dose: 10.0 mg/kg/injection, schedule: Q04DX003 (ip), vehicle: saline) was 100 % of control; the T/C under setting [11] is 105 % of control.
Consider `OC(CCl)Cc1ccccc1` (centres undefined), for which the T/C (dose: 25.0 mg/kg/injection, schedule: Q01DX009 (ip), vehicle: saline with Tween-80) is 93 % of control; the T/C (dose: 50.0 mg/kg/injection, schedule: Q01DX009 (ip), vehicle: saline with Tween-80) was 90 % of control; the T/C under setting [11] is 92 % of control.
As for `CCCC(CCC)NC(=O)c1ccccc1`, the T/C is, setting by setting: (dose: 25.0 mg/kg/injection, schedule: Q04DX002 (ip), vehicle: saline with Tween-80) 104 % of control; (dose: 50.0 mg/kg/injection, schedule: Q04DX002 (ip), vehicle: saline with Tween-80) 95 % of control; (dose: 100.0 mg/kg/injection, schedule: Q04DX002 (ip), vehicle: saline with Tween-80) 95 % of control.
Consider `O=C(OCCn1c(-c2ccccn2)nc2ccccc21)C(O)(c1ccccc1)c1ccccc1`, for which the T/C is, setting by setting: (dose: 100.0 mg/kg/injection, schedule: Q01DX001 (ip), vehicle: Klucel (hydroxypropylcellulose) (HPC)) 102 % of control; (dose: 200.0 mg/kg/injection, schedule: Q01DX001 (ip), vehicle: Klucel (hydroxypropylcellulose) (HPC)) 93 % of control.
Regarding `CCCNCCC[P+](c1ccccc1)(c1ccccc1)c1ccccc1`, the T/C by setting is: (dose: 25.0 mg/kg/injection, schedule: Q04DX002 (ip), vehicle: saline) 102 % of control; (dose: 50.0 mg/kg/injection, schedule: Q04DX002 (ip), vehicle: saline) 98 % of control; (dose: 100.0 mg/kg/injection, schedule: Q04DX002 (ip), vehicle: saline) 98 % of control and 91 % of control.
